Patent US11696913B2, “Prolonged ectoparasite-controlling agent for animal” (MITSUI CHEMICALS AGRO, INC., priority 2017, dated 2023)

Columns and labels:
Laodelphax striatellus = assay: Insecticidal testing against small brown planthopper; assay type: in vivo; settings: 144 h, concentration 100 ppm, sprayed rice seedlings, after 6 days, read-out: pesticidal rate
Outline: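 Acetone solution of compound at a set concentration sprayed onto rice seedlings, air-dried, then exposed to 10 planthoppers (one group). Held at 25° C; survival rate recorded after 6 days.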

Dermacentor variabilis = assay: In vitro contact test with adult hard ticks (Dermacentor variabilis); settings: read-out: acaricidal activity; for pest or weed control at 0.2 µg/cm2, 0.2 µg/cm2: dose 0.2 μg/cm^2, 48 h; for pest or weed control at 1 µg/cm2, 1 µg/cm2: dose 1 μg/cm^2, 48 h
Outline: (§1)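 Acaricidal activity = % ticks dead or moribund after 48 h contact with acetone-deposited compound on vial walls (e.g., 900 ppm solution → 5 μg/cm^2). Ambient conditions for R. sanguineus, 21° C./85% rel. hum. for other species; heat challenge at 45-50° C. separated climbers from moribund ticks.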

Amblyomma americanum = assay: In vitro contact test with hard ticks (Amblyomma americanum nymphs); settings: read-out: acaricidal activity; for pest or weed control at 0.2 µg/cm2, 0.2 µg/cm2: dose 0.2 μg/cm^2, 48 h; for pest or weed control at 1 µg/cm2, 1 µg/cm2: dose 1 μg/cm^2, 48 h; for pest or weed control at 0.04 µg/cm2, 0.04 µg/cm2: dose 0.04 μg/cm^2, 48 h
Outline: as §1

[1] = system: Rhipicephalus (Boophilus) microplus; assay: In vitro injection test with Rhipicephalus (Boophilus) microplus (BOOPMI Inj); settings: 168 h, laid fertile eggs after 7 days, read-out: acaricidal activity; for pest or weed control at 32 ng: dose 0.032 μg/animal injected; for pest or weed control at 0.00016 mg: dose 0.16 μg/animal injected; for pest or weed control at 0.0008 mg: dose 0.8 μg/animal injected; for pest or weed control at 6.4 ng: dose 0.0064 μg/animal injected
Outline: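 Five engorged adult females each get a 1 μl abdominal injection of compound dissolved and diluted in DMSO. Kept 7 days at 28° C./85% rel. hum.; percent activity rates egg laying and egg fertility (0% all fertile, 100% none laid or infertile).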

Ctenocephalides felis [2] = assay: Ctenocephalides felis in-vitro feeding test with fleas (CTECFE oral); settings: 48 hours, read-out: insecticidal feeding activity; for pest or weed control at 0.16 ppm: dose 0.16 ppm in citrated cattle blood; for pest or weed control at 0.8 ppm: dose 0.8 ppm in citrated cattle blood; for pest or weed control at 4 ppm: dose 4 ppm in citrated cattle blood; for pest or weed control at 0.032 ppm: dose 0.032 ppm in citrated cattle blood
Outline: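 Scored as percent fleas killed (0–100%) 48 hours after feeding began. Compound, dissolved in DMSO and diluted into citrated cattle blood, was offered via a parafilm membrane to roughly 20 adult male and female C. felis at about 37° C.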

Rhipicephalus sanguineus = assay: In vitro contact test with adult hard ticks (Rhipicephalus sanguineus); settings: read-out: acaricidal activity; for pest or weed control at 0.04 µg/cm2, 0.04 µg/cm2: dose 0.04 μg/cm^2, 48 h; for pest or weed control at 0.2 µg/cm2, 0.2 µg/cm2: dose 0.2 μg/cm^2, 48 h; for pest or weed control at 1 µg/cm2, 1 µg/cm2: dose 1 μg/cm^2, 48 h
Outline: as §1

Ixodes ricinus = assay: In vitro contact test with adult hard ticks (Ixodes ricinus); settings: read-out: acaricidal activity; for pest or weed control at 0.2 µg/cm2, 0.2 µg/cm2: dose 0.2 μg/cm^2, 48 h; for pest or weed control at 1 µg/cm2, 1 µg/cm2: dose 1 μg/cm^2, 48 h; for pest or weed control at 5 µg/cm2, 5 µg/cm2: dose 5 μg/cm^2, 48 h
Outline: as §1

Spodoptera litura = assay: Insecticidal testing against common cutworm; assay type: in vivo; settings: foliar, 144 h, concentration 100 ppm, cabbage leaf dip, second-stage larvae, after 6 days, read-out: pesticidal rate
Excerpt: Insecticidal Testing Against Common Cutworm (Spodoptera litura)

Plutella xylostella = assay: Insecticidal testing against diamondback moth; assay type: in vivo; settings: foliar, 144 h, concentration 100 ppm, cabbage leaf dip, third-stage larvae, after 6 days, read-out: pesticidal rate
Excerpt: Insecticidal Testing Against Diamondback Moth (Plutella xylostella)

Ctenocephalides felis [3] = assay: In vitro contact test with fleas; settings: read-out: insecticidal activity; for pest or weed control at 0.04 µg/cm2, 0.04 µg/cm2: dose 0.04 μg/cm^2, dead or moribund fleas after 48 h; for pest or weed control at 0.2 µg/cm2, 0.2 µg/cm2: dose 0.2 μg/cm^2, dead or moribund fleas after 48 h; for pest or weed control at 1 µg/cm2, 1 µg/cm2: dose 1 μg/cm^2, dead or moribund fleas after 48 h
Outline: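 Activity is the percentage of fleas dead or moribund at 48 h, judged by immobility or uncoordinated movement after tapping. Tubes were coated by evaporating acetone solutions (900 ppm gives 5 μg/cm^2), then held 5-10 adult fleas of both sexes at room temperature and ambient humidity.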

Row | Compound | pest or weed control at 100 ppm (Laodelphax striatellus) | pest or weed control at 0.2 µg/cm2, 0.2 µg/cm2 (Dermacentor variabilis) | pest or weed control at 1 µg/cm2, 1 µg/cm2 (Dermacentor variabilis) | pest or weed control at 0.2 µg/cm2, 0.2 µg/cm2 (Amblyomma americanum) | pest or weed control at 1 µg/cm2, 1 µg/cm2 (Amblyomma americanum) | pest or weed control at 32 ng [1] | pest or weed control at 0.00016 mg [1] | pest or weed control at 0.0008 mg [1] | pest or weed control at 0.16 ppm (Ctenocephalides felis [2]) | pest or weed control at 0.8 ppm (Ctenocephalides felis [2]) | pest or weed control at 4 ppm (Ctenocephalides felis [2]) | pest or weed control at 0.04 µg/cm2, 0.04 µg/cm2 (Rhipicephalus sanguineus) | pest or weed control at 0.2 µg/cm2, 0.2 µg/cm2 (Rhipicephalus sanguineus) | pest or weed control at 1 µg/cm2, 1 µg/cm2 (Rhipicephalus sanguineus) | pest or weed control at 1 µg/cm2, 1 µg/cm2 (Ixodes ricinus) | pest or weed control at 5 µg/cm2, 5 µg/cm2 (Ixodes ricinus) | pest or weed control at 100 ppm (Spodoptera litura) | pest or weed control at 100 ppm (Plutella xylostella) | pest or weed control at 0.2 µg/cm2, 0.2 µg/cm2 (Ctenocephalides felis [3]) | pest or weed control at 1 µg/cm2, 1 µg/cm2 (Ctenocephalides felis [3]) | other results
1 | O=C(Nc1cc(C(=O)Nc2c(I)cc(C(F)(C(F)(F)F)C(F)(F)F)cc2C(F)(F)F)ccc1F)c1ccc(F)cc1 [Compound 84] | ≥ 70% | 90% | 90% | 90% | 90% | 100% | 100% | 100% | 95% | 95% | 95% | 90% | 90% | 90% | 90% | 90% | ≥ 70% | ≥ 70% |  |  | pest or weed control at 0.2 µg/cm2, 0.2 µg/cm2 (Ixodes ricinus): 90%
2 | CN(C(=O)c1ccc(F)cc1)c1cccc(C(=O)Nc2c(Br)cc(C(F)(C(F)(F)F)C(F)(F)C(F)(F)F)cc2OC(F)F)c1F (stereo not drawn) [Compound 105] | ≥ 70% | 90% | 90% |  | 90% | 100% | 100% | 100% | 95% | 95% | 95% |  |  | 90% | 90% | 90% | ≥ 70% | ≥ 70% | 95% | 95% | pest or weed control at 0.04 µg/cm2, 0.04 µg/cm2 (Ctenocephalides felis [3]): 95%; pest or weed control at 0.04 µg/cm2, 0.04 µg/cm2 (Amblyomma americanum): 90%; pest or weed control at 0.032 ppm (Ctenocephalides felis [2]): 95%
3 | CN(C(=O)c1ccc(F)c(F)c1)c1cccc(C(=O)Nc2c(I)cc(C(F)(C(F)(F)F)C(F)(F)F)cc2OC(F)F)c1F [Compound 109] | ≥ 70% | 90% | 90% |  | 90% | 100% | 100% | 100% | 95% | 95% | 95% | 90% |  |  | 90% | 90% | ≥ 70% | ≥ 70% | 95% | 95% | pest or weed control at 0.04 µg/cm2, 0.04 µg/cm2 (Ctenocephalides felis [3]): 95%; pest or weed control at 6.4 ng [1]: 100%; pest or weed control at 0.032 ppm (Ctenocephalides felis [2]): 95%; pest or weed control at 0.2 µg/cm2, 0.2 µg/cm2 (Ixodes ricinus): 90%
4 | O=C(Nc1cccc(C(=O)Nc2c(Br)cc(C(F)(C(F)(F)F)C(F)(F)F)cc2OC(F)(F)F)c1F)c1ccc(F)c(F)c1 [Compound 101] | ≥ 70% | 90% | 90% | 90% | 90% |  | 100% | 100% | 95% | 95% | 95% |  | 90% | 90% | 90% | 90% | ≥ 70% | ≥ 70% | 95% | 95% | pest or weed control at 0.04 µg/cm2, 0.04 µg/cm2 (Ctenocephalides felis [3]): 95%; pest or weed control at 0.2 µg/cm2, 0.2 µg/cm2 (Ixodes ricinus): 90%
5 | O=C(Nc1cccc(C(=O)Nc2c(Br)cc(C(F)(C(F)(F)F)C(F)(F)C(F)(F)F)cc2OC(F)(F)F)c1F)c1ccc(F)cc1 (stereo not drawn) [Compound 95] | ≥ 70% |  | 90% | 90% | 90% | 100% | 100% | 100% | 95% | 95% | 95% | 90% | 90% | 90% | 90% | 90% | ≥ 70% | ≥ 70% | 95% | 95% | pest or weed control at 0.04 µg/cm2, 0.04 µg/cm2 (Amblyomma americanum): 90%; pest or weed control at 0.2 µg/cm2, 0.2 µg/cm2 (Ixodes ricinus): 90%
6 | O=C(Nc1cccc(C(=O)Nc2c(I)cc(C(F)(C(F)(F)F)C(F)(F)C(F)(F)F)cc2C(F)(F)F)c1F)c1ccc(F)nc1 (stereo not drawn) [Compound 82] | ≥ 70% | 90% | 90% | 90% | 90% | 100% | 100% | 100% | 95% | 95% | 95% | 90% | 90% | 90% |  | 90% | ≥ 70% | ≥ 70% | 95% | 95% | pest or weed control at 0.04 µg/cm2, 0.04 µg/cm2 (Ctenocephalides felis [3]): 95%; pest or weed control at 0.04 µg/cm2, 0.04 µg/cm2 (Dermacentor variabilis; dose 0.04 μg/cm^2, 48 h): 90%; pest or weed control at 6.4 ng [1]: 100%
7 | O=C(Nc1cccc(C(=O)Nc2c(I)cc(C(F)(C(F)(F)F)C(F)(F)C(F)(F)F)cc2C(F)(F)F)c1F)c1ccc(C(F)(F)F)nc1 (stereo not drawn) [Compound 102] | ≥ 70% |  | 90% | 90% | 90% | 100% | 100% | 100% | 95% | 95% | 95% |  | 90% | 90% |  | 90% | ≥ 70% | ≥ 70% | 95% | 95% | pest or weed control at 0.032 ppm (Ctenocephalides felis [2]): 95%
